From BindingDB's records for patent US20260049068 (Bristol Myers Squibb, 2026)

Experiments:
[1] = target: Diacylglycerol kinase alpha (Homo sapiens, UniProt P23743); assay: In Vitro DGK Inhibition Assay
Experimental: (§1) The DGKα (Full Length and Near Full Length) ADP Glo assays were performed using an extruded liposome prep at either 5% DAG or 10% DAG. The Enzymatic reactions were carried out in 50 mM MOPS pH 7.5, 100 mM NaCl, 10 mM MgCl2, 1 μM CaCl2, and 1 mM DTT (assay buffer). The lipid substrate concentrations were 1.9 mM PS, either 0.25 mM DAG (5% liposome prep) or 0.5 mM DAG (10% liposome prep), and 2.7 mM PC for the extruded liposome reactions. […] A 5 mL enzyme/substrate (substrate being the 5× or 10× liposome preparation) solution at 2× final reaction concentrations was prepared by combining 5 ml of the extruded liposome preparation with 10 nM (2× final) DGKα(Near Full Length) or DGKα(Full Length) prepared as described below) and incubated at room temperature for 10 minutes. Next, 1 μL of the 2× enzyme/substrate solution was added to wells containing the test compound and reactions were initiated with the addition of 1 μL 300 uM ATP. Substrate only was added to DMSO only wells for background measurements. The reactions were allowed to proceed for 1 hr, after which 2 μL Glo Reagent (Promega V9101) was added and incubated for 40 minutes. Next, 4 μL Kinase Detection Reagent was added and incubated for 30 minutes. Luminescence was recorded using an EnVision microplate reader. […] The compounds were evaluated at 11 concentrations to determine IC50.

[2] = target: T1, Diacylglycerol kinase alpha [9-727] (Homo sapiens, UniProt P23743); assay: In Vitro DGK Inhibition Assay
T1 construct: 9-727
T1 sequence (P23743 whole entry): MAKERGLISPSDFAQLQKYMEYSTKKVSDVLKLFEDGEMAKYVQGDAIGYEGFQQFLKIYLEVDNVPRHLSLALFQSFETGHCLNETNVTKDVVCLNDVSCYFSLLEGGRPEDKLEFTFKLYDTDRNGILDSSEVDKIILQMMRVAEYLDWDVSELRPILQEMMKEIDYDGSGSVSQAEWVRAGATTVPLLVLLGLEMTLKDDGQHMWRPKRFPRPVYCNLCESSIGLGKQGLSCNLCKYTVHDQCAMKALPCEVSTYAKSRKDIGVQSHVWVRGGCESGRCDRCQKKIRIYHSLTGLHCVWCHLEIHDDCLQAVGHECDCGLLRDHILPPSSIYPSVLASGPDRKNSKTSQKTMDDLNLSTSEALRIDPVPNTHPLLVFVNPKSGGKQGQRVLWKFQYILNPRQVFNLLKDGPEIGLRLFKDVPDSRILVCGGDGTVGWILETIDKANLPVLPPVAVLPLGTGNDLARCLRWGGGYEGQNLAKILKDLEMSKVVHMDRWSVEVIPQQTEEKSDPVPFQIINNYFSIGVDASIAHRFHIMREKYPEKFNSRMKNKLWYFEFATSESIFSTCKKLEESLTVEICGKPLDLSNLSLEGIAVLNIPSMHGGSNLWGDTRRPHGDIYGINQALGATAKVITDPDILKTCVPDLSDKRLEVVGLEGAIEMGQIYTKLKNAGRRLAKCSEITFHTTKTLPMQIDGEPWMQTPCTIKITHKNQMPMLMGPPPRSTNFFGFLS
Experimental: as §1

Chain of Diacylglycerol kinase alpha (P23743 whole entry): as above

Structure (SMILES) | IC50 [1] [µM] | IC50 [2] [µM]
CN(Cc1nnnn1-c1cccc([N+](=O)[O-])c1)C1CCOCC1 [US20260049068, Example 38] | 15 | –
CC1CCC(N(C)Cc2nnnn2-c2cccc([N+](=O)[O-])c2)CC1 (centres undefined) [US20260049068, Example 2] | 2.7 | 1.2
CN(Cc1nnnn1-c1cccc([N+](=O)[O-])c1)C1CCN(C(=O)OC(C)(C)C)C1 (centres undefined) [US20260049068, Example 39] | 35 | –
CN(Cc1nnnn1-c1cc(C#N)cc([N+](=O)[O-])c1)C1CCCCC1 [US20260049068, Example 27] | – | 0.48
C=CCN(Cc1nnnn1-c1ccc(Cl)c(C#N)n1)C1CCCCC1 [US20260049068, Example 17] | 1.2 | 1.6
CN(Cc1nnnn1-c1cccc([N+](=O)[O-])c1)C1CC1 [US20260049068, Example 44] | 180 | –
CN(Cc1nnnn1-c1ccc(Cl)c([N+](=O)[O-])c1)C1CCCCC1 [US20260049068, Example 28] | 0.06 | 0.12
CN(Cc1nnnn1-c1cccc([N+](=O)[O-])c1)C1CCOC1 (centres undefined) [US20260049068, Example 40] | 55 | –
N#Cc1nc(-n2nnnc2CN(Cc2ccccc2)[C@@H]2CCCC[C@H]2O)ccc1Cl [US20260049068, Example 58] | 60 | –
N#Cc1nc(-n2nnnc2CN(CC(O)c2ccccc2)C2CCCCC2)ccc1Cl (centres undefined) [US20260049068, Example 57] | 120 | –
CC(C)CN(C)Cc1nnnn1-c1cccc([N+](=O)[O-])c1 [US20260049068, Example 42] | 32 | –
